This note sets out measurements from patent US9631001B2, “Peptide antagonists of the vasopressin-2 receptor” (COMMISSARIAT A L'ENERGIE ATOMIQUE ET AUX ENERGIES …, priority 2012, dated 2017).

One data set relates to 157 GPCRs. The data set is described as follows: FLIPR agonist/antagonist profiling on 157 GPCRs. Format: cell-based. The following applies: 1 μM U-Da2a. The procedure: Percentage activation and percentage inhibition values were determined on each GPCR. […] Percentage inhibition values were determined upon addition of a reference agonist at an estimated EC80 concentration. All wells were prepared using EMD Millipore's GPCRProfiler® Assay Buffer. The GPCRProfiler® Assay Buffer was a modified Hanks Balanced Salt Solution (HBSS) where HBSS was supplemented to contain 20 mM HEPES and 2.5 mM Probenecid at pH7.4. […] The agonist assay was a total of 180 seconds and was used to assess each compound's ability to activate each GPCR assayed. […] The antagonist assay was conducted using the same assay plate and the same apparatus that was used for the agonist assay. All assay plate data were subjected to appropriate baseline corrections. After baseline corrections were applied, maximum fluorescence values were exported and data processed to calculate percentage activation (relative to Emax reference agonist and vehicle control values), percentage inhibition (relative to EC80 and vehicle control values), and additional statistical values (i.e. Z′, percentage variation between replicate data values) to assess the quality of each plate. Where assay plate data were rejected, additional experiments were conducted.

Another data set has as its target T1, Kv1.5 (Homo sapiens, UniProt P22460).
T1 construct: expressed in transfected cells
The data set is described as follows: IonWorks electrophysiological assay. Type of data set: cell-based. To be noted: 1 μM. The procedure: (§1) The stock solution was transferred to a master plate and into assay plates where 2 μl per well of the solution were placed. On the day of the assay, 198 μl of external solution containing the appropriate DMSO concentration was added and mixed thoroughly. This provided a 1:100 dilution. A further 1:3 dilution occurred upon addition to the cells in the IonWorks, giving a 1:300 dilution in total. On each assay plate, at least 8 wells were reserved for vehicle control (0.3% DMSO) and at least 8 wells for each positive control specific to the cell line tested. The positive controls were tested at a maximal blocking and an approximate IC50 concentration. The compounds used for positive controls: Nav1.5 100 μM and 5 mM Lidocaine, Kv4.3/KChIP2 20 μM and 500 μM Quinidine, Cav1.2 1 μM and 100 μM Nitrendipine, Kv1.5 300 μM and 10 mM 4-AP, KCNQ1/minK 10 μM and 100 μM Chromanol 293B, hERG 0.1 μM and 1 μM Cisapride, HCN4 50 μM and 3 mM Cesium, Kir2.1 20 μM and 500 μM Barium.
In general terms: Patch clamp records ionic current or voltage across a cell membrane.

In another data set the target is T2, hERG (Homo sapiens, UniProt Q12809).
T2 construct: expressed in transfected cells
T2 sequence (Q12809 whole entry): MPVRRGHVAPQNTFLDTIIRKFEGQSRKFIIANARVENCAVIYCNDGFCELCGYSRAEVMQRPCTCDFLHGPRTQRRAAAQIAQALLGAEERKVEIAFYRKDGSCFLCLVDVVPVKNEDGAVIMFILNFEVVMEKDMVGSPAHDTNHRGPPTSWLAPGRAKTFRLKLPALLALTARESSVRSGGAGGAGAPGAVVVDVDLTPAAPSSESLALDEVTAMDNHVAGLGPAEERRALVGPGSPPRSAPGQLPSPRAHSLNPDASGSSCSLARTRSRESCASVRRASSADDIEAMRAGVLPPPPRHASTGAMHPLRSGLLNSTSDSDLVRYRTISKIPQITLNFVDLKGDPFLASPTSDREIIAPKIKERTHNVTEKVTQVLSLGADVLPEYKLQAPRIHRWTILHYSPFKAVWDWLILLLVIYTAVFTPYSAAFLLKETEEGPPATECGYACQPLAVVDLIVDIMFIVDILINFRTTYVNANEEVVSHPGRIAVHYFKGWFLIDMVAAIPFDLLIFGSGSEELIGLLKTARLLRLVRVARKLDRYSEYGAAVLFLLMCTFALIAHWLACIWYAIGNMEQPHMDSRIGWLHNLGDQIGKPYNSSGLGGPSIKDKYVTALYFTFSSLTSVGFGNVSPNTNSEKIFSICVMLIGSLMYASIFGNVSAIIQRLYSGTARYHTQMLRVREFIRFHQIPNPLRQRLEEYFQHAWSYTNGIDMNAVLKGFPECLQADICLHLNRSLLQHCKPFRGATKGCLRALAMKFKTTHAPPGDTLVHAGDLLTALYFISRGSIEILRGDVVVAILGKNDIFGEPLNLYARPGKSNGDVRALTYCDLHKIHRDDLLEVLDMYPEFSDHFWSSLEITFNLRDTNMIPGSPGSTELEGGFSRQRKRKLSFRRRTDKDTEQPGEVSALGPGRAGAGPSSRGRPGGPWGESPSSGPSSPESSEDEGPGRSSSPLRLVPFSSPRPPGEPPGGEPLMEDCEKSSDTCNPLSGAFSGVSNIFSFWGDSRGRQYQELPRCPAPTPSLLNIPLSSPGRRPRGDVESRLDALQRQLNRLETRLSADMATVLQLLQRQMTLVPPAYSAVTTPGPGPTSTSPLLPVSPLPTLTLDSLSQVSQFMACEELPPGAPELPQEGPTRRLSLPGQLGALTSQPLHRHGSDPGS
The data set is described as follows: IonWorks electrophysiological assay. Type of data set: cell-based. The following applies: 1 μM. The protocol:
as §1

In data set [1] the test system is CD1^pcy/pcy mice. Put plainly: Diuretic and urine osmolarity effect, single and increasing doses. Type of data set: in vivo, mouse. The protocol: The toxin was dissolved in 0.9% NaCl at a concentration of 1 mg/ml. Adult CD1^pcy/pcy (Takahashi et al., J. Urol., 1986, 135, 1280-1283, and J. Am. Soc. Nephrol., 1991, 1, 980-989 and Olbrich et al., Nature Genetics, 2003, 34, 455-459) and adult C57BL/6 mice were injected intraperitoneally and subcutaneously with the toxin at doses of 1, 0.1 and 0.01 μmol toxin/kg of body weight. One, three and five days after the first injection the mice were kept for 24 hours in metabolic cages. The collected urine was centrifuged for 30 minutes at 14,000 rpm. Urine osmolality (mOs/kg) was determined with a Knauer osmometer, urine volume (μl) was measured with a pipette.

In the next data set the target is T3, V1bR (Homo sapiens, UniProt P47901).
T3 sequence (P47901 1-424): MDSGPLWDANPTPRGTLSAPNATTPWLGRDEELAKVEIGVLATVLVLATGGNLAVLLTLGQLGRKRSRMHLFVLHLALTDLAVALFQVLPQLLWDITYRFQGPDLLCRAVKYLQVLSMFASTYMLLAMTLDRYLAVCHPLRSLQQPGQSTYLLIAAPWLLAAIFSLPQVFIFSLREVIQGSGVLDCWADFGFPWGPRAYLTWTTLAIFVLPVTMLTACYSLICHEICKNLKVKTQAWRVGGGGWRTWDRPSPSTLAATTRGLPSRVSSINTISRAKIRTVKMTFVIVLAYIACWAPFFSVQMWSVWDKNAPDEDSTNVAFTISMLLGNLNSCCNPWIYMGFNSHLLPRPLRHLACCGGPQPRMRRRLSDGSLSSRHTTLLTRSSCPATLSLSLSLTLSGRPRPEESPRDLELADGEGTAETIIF
The data set is described as follows: 3H-AVP competition binding on V1bR membranes. To be noted: toxin at 1 μM. The protocol: (§2) Membranes from cells expressing vasopressin receptors were purchased from […] (Courtaboeuf, France). Binding experiments were performed with ^3H-AVP ([…], Courtaboeuf, France) in 96-well plates. Reaction mixtures contained 50 mM Tris-HCl, pH 7.4, 10 mM MgCl2 and 1 g/L BSA in a final volume of 100 μL. Plates were incubated for 3 h at room temperature. Binding reactions were stopped by filtration through a GF/C filter pre-soaked in 0.5% polyethyleneimine on a cell harvester ([…], Courtaboeuf, France) and plates were dried. Ultimagold O (25 μl; […]) was added to each well and samples were counted using a TopCount counter ([…], Courtaboeuf, France) (Counting yield of 55%). […] A one-site inhibition mass action curve was fitted to inhibition binding data using Kaleidagraph (SYNERGY SOFTWARE, Reading, Pa., USA). IC50 values were converted to Ki for competition experiments using the Cheng-Prusoff equation (Cheng et al., Biochem. Pharmacol., 1973, 22, 3099-3108).

For another data set, the target named is V2R (Homo sapiens, UniProt P30518). The data set is described as follows: AVP-induced MAP kinase phosphorylation (HTRF) in tsA cells expressing V2R. Format: cell-based. The arrangement: expressed in transfected cells.
V2R, sequence (P30518 whole entry): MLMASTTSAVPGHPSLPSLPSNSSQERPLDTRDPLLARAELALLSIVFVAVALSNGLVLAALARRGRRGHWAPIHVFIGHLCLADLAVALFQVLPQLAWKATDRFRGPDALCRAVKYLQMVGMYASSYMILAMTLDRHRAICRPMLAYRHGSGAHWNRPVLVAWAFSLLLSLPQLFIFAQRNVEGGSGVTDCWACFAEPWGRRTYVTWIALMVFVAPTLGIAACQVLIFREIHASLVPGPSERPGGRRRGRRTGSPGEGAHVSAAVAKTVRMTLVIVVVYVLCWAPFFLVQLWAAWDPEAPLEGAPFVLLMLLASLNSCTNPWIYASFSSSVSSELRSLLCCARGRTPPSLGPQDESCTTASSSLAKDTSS
The subject of data set [2] is CD1^pcy/pcy mice. Put plainly: Long-term administration experiment (99 days). Type of data set: in vivo, mouse. The following applies: 0.1 μmol/kg/day i.p. The procedure: The toxin was dissolved in 0.9% NaCl at a concentration of 1 mg/ml and administered intraperitoneally to adult CD1^pcy/pcy mice at a dose of 0.1 μmol/kg/day. At 0, 30 70 and 99 days, urine was collected for 24 hours in metabolic cages and urine volume and urine osmolarity were determined.

Another data set addresses V1aR (Homo sapiens, UniProt P37288). Put plainly: 3H-AVP competition binding on V1aR membranes. To be noted: toxin at 1 μM. The procedure:
as §2

Setting [3] is: i.p. or s.c. injection at 1 μmol/kg, 24 h urine, vs basal state.

V1aR, sequence (P37288 whole entry): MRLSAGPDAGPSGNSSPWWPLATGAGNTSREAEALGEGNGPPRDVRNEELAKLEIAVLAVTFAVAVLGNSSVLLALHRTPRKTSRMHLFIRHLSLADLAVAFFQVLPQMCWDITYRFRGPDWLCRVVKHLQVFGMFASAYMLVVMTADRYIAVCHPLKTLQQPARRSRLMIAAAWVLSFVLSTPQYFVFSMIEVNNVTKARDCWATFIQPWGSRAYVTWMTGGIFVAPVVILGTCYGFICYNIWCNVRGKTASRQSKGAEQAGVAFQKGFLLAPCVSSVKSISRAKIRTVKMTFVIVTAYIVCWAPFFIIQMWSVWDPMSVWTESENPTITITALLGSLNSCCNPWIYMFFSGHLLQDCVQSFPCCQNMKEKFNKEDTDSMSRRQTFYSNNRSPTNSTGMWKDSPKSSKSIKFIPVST
T1 sequence (P22460 whole entry): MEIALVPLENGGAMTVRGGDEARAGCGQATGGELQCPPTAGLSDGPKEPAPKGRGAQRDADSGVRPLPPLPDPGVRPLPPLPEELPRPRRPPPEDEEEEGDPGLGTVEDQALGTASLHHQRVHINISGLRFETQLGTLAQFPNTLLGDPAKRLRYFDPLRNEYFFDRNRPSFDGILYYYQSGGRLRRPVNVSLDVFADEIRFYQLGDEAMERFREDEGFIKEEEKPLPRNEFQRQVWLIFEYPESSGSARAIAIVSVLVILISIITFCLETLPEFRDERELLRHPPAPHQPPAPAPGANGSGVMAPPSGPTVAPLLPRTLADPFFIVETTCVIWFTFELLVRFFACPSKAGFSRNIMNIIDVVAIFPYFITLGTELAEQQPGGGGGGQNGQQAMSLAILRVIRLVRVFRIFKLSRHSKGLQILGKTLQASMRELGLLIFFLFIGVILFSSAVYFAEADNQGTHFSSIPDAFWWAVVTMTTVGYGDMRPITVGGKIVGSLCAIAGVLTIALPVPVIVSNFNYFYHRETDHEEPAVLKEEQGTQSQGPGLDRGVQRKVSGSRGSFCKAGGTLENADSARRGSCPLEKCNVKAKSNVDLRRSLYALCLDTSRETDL
Experimental for V2R: Eight hours and twenty-four hours later, the cells were starved with serum-free medium and stimulated another twenty-seven hours later. […] In a 384 well plate, to 16 μl of lysed cells first 2 μl of the antibody against phosphorylated ERK labeled with acceptor fluorophore (AC-ERK-P-d2 emitting at 665 nm) and then 2 μl of the antibody against total ERK labeled with donor fluorophore (AC-ERK-K emiting at 620 nm) were added. When ERK phosphorylation occurs, the acceptor in close vicinity of the donor is able to emit at 665 nm producing the FRET signal. The increase in the 665/620 ratio corresponds to the increase in MAP kinase phosphorylation. Two hours later, RT-FRET was measured on a laser-based HTRF® reader Rubystar with Rubystar software (BMG LABTECH).

Take `CC[C@H](C)[C@@H]1NC(=O)[C@H]([C@@H](C)O)NC(=O)[C@H](CO)NC(=O)[C@H](Cc2ccccc2)NC(=O)[C@H](CCCNC(=N)N)NC(=O)[C@H](CC(N)=O)NC(=O)[C@H](C)NC(=O)[C@H](CC(N)=O)NC(=O)CNC(=O)[C@H](CCCCN)NC(=O)[C@@H]2CSSC[C@@H]3NC(=O)[C@@H]4CCCN4C(=O)CNC(=O)[C@@H]4CCCN4C(=O)[C@H](CCCCN)NC(=O)[C@H](C(C)C)NC(=O)[C@@H]4CCCN4C(=O)[C@H](CC(C)C)NC(=O)[C@H](CC(N)=O)NC(=O)[C@@H](NC(=O)[C@H](Cc4ccccc4)NC(=O)[C@H](CO)NC(=O)[C@@H]4CCCN4C(=O)[C@@H](N)CCCNC(=N)N)CSSC[C@@H](C(=O)N[C@H](C(=O)NCC(=O)O)C(C)C)NC(=O)[C@H]([C@@H](C)O)NC(=O)[C@H](CCCNC(=N)N)NC(=O)[C@H](CCCNC(=N)N)NC(=O)[C@H](CSSC[C@H](NC(=O)[C@H](CCCCN)NC(=O)[C@H](CC(N)=O)NC(=O)[C@H]([C@@H](C)O)NC(=O)[C@H](CCCCN)NC(=O)[C@H](CCC(N)=O)NC(=O)[C@H](CO)NC(=O)[C@H](Cc4ccc(O)cc4)NC(=O)[C@H](Cc4ccc(O)cc4)NC(=O)[C@H](Cc4ccccc4)NC(=O)[C@H](C)NC(=O)[C@H](CO)NC(=O)[C@H](Cc4ccccc4)NC(=O)[C@H](Cc4ccccc4)NC(=O)CNC(=O)[C@H](CC(N)=O)NC3=O)C(=O)N[C@@H](Cc3c[nH]cn3)C(=O)N[C@@H](CO)C(=O)N[C@@H](Cc3ccccc3)C(=O)N[C@@H]([C@@H](C)O)C(=O)N[C@@H](Cc3ccc(O)cc3)C(=O)NCC(=O)NCC(=O)N2)NC(=O)[C@H](CCCCN)NC(=O)[C@H](CCC(=O)O)NC1=O` [U-Da2a]: the “agonist and antagonist activity on 157 GPCRs” value with 157 GPCRs was “detected only on V2R”. For the same compound, at Kv1.5, the “inhibition of Kv1.5” value was “did not appear to exhibit significant inhibition”. Further, at hERG, the “inhibition of hERG” value is listed as “did not appear to exhibit significant inhibition”. For the same compound, the “dose sufficient to observe the maximal effect” value in the data set on CD1^pcy/pcy mice [1] (i.p.) came out at 0.1 µmol/kg. In the data set on CD1^pcy/pcy mice [1] (setting [3]), the urine osmolarity entry is recorded as “strong decrease in osmolarity” and the urine volume entry is given as “strong increase in urine volume”. Besides, in the data set with CD1^pcy/pcy mice [1] (i.p., 1, 0.1 and 0.01 μmol/kg), the “diuretic effect at increasing doses” value is reported as “dose-dependent diuretic effect” and the “urine osmolarity at increasing doses” value is “decrease in urine osmolarity”. Besides, at V1bR, the “inhibition of 3H-AVP binding to V1bR” value was “did not inhibit”. For the same compound, the Kb on V2R is 126 nM. Also, the “toxic effect after long-term daily injections” value in the data set with CD1^pcy/pcy mice [2] was “No toxic effect was detectable”. The “inhibition of 3H-AVP binding to V1aR” value at V1aR is on record as “did not inhibit”.
